Test results as given in ChEMBL document CHEMBL1136418, “Synthesis and gamma-secretase activity of APP substrate-based hydroxyethylene dipeptide isosteres” (Bioorg Med Chem Lett, 2003).

Tests used:
[1] = biological target: T1, Gamma-secretase subunit PEN-2 (Homo sapiens, UniProt Q9NZ42); experiment: Compound required for inhibition of gamma-secretase-mediated formation of Abeta1-42 polypeptide; format: functional
[2] = biological target: T1, Gamma-secretase subunit PEN-2; experiment: Compound required for inhibition of gamma-secretase-mediated formation of Abeta1-40 polypeptide; format: functional
[3] = biological target: T1, Gamma-secretase subunit PEN-2; experiment: Inhibitory concentration against gamma-secretase was determined

T1 sequence (Q9NZ42 whole entry): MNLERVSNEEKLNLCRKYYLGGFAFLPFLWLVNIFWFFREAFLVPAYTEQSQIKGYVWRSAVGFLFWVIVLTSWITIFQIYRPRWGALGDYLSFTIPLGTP

Structure (SMILES)	ED50 [1] [µM]	ED50 [2] [µM]	IC50 [3] [µM]
CCC(C)[C@H](NC(=O)[C@@H](NC(=O)[C@@H](C[C@@H](O[Si](C)(C)C(C)(C)C)[C@H](C)NC(=O)OC(C)(C)C)[C@@H](C)O[Si](C)(C)C(C)(C)C)C(C)C)C(N)=O (stereo partly specified)	> 10	> 10	–
CC(C)C[C@H](NC(=O)C(CC[C@H](Cc1ccccc1)NC(=O)OC(C)(C)C)Cc1ccccc1)C(=O)N[C@@H](Cc1ccccc1)C(N)=O (stereo partly specified)	> 10	> 10	–
CC(C)C[C@H](NC(=O)/C(=C/C[C@H](Cc1ccccc1)NC(=O)OC(C)(C)C)Cc1ccccc1)C(=O)N[C@@H](Cc1ccccc1)C(N)=O	> 10	> 10	–
CC[C@H](C)[C@H](NC(=O)[C@@H](NC(=O)[C@H](Cc1ccccc1)C[C@@H](O)[C@H](Cc1ccccc1)NC(=O)OC(C)(C)C)C(C)C)C(N)=O	35	32	–
CCC(C)[C@H](NC(=O)[C@@H](NC(=O)[C@H](C[C@@H](O[Si](C)(C)C(C)(C)C)[C@H](C)NC(=O)OC(C)(C)C)C(C)O[Si](C)(C)C(C)(C)C)C(C)C)C(N)=O (stereo partly specified)	> 10	> 10	–
CCC(C)C(C[C@@H](O[Si](C)(C)C(C)(C)C)[C@@H](NC(=O)OC(C)(C)C)C(C)C)C(=O)N[C@@H](C)C(=O)N[C@H](C(N)=O)C(C)O (stereo partly specified)	> 10	> 10	–
CCC(C)[C@H](NC(=O)[C@@H](NC(=O)[C@@H](C[C@@H](O[Si](C)(C)C(C)(C)C)[C@H](C)NC(=O)OC(C)(C)C)[C@H](C)O[Si](C)(C)C(C)(C)C)C(C)C)C(N)=O (stereo partly specified)	> 10	> 10	–
CC(C)C[C@H](NC(=O)[C@H](CN)C[C@@H](O)[C@H](Cc1ccccc1)NC(=O)OC(C)(C)C)C(=O)N[C@@H](Cc1ccccc1)C(N)=O	> 10	> 10	–
CC(C)C[C@H](NC(=O)[C@H](Cc1ccccc1)C[C@@H](O)[C@H](Cc1ccccc1)NC(=O)OC(C)(C)C)C(=O)N[C@@H](Cc1ccccc1)C(N)=O	0.014	0.036	0.3
CC(NC(=O)[C@H](Cc1ccccc1)C[C@@H](O)[C@H](Cc1ccccc1)NC(=O)OC(C)(C)C)C(=O)N[C@H](C(N)=O)[C@H](C)O (single isomer, unassigned)	230	732	–
